In patent US20150141411A1, “SUBSTITUTED 3,4-DIHYDRO-2H-PYRIDO[1,2-A]PYRAZINE-1,6-DIONE DERIVATIVES USEFUL FOR THE TREATMENT OF (INTER ALIA) ALZHEIMER'S DISEASE” (Janssen Pharmaceuticals, Inc., priority 2012, published 2015):

test system: Aβ42; assay: In vivo efficacy: brain soluble Aβ42 in non-transgenic rodents (ELISA); conditions: Mus musculus, dose 30 mg/kg oral dosing, brain soluble fraction, animals sacrificed after 4 h, untreated animals (Ctrl) set at 100, read-out: Aβ42 (% vs Ctrl)_Mean
Excerpt: To determine whether acute administration of an Aβ42 lowering agent would reduce Aβ42 levels in vivo, non-transgenic rodents, e.g. mice or rats were used. Animals treated with the Aβ42 lowering agent were examined and compared to those untreated or treated with vehicle and brain levels of soluble Aβ42 and total Aβ were quantitated by standard techniques, for example, using ELISA. Treatment periods varied from hours (h) to days and were adjusted based on the results of the Aβ42 lowering once a time course of onset of effect could be established.
A typical protocol for measuring Aβ42 lowering in vivo is shown but it is only one of many variations that could be used to optimize the levels of detectable Aβ. For example, Aβ42 lowering compounds were formulated in 20% of Captisol® (a sulfobutyl ether of β-cyclodextrin) in water or 20% hydroxypropyl β cyclodextrin. The Aβ42 lowering agents were administered as a single oral dose or by any acceptable route of administration to overnight fasted animals. After 4 h, the animals were sacrificed and Aβ42 levels were analysed.
Blood was collected by decapitation and exsanguinations in EDTA-treated collection tubes. Blood was centrifuged at 1900 g for 10 minutes (min) at 4° C. and the plasma recovered and flash frozen for later analysis. The brain was removed from the cranium and hindbrain. The cerebellum was removed and the left and right hemisphere were separated. The left hemisphere was stored at −18° C. for quantitative analysis of test compound levels. The right hemisphere was rinsed with phosphate-buffered saline (PBS) buffer and immediately frozen on dry ice and stored at −80° C. until homogenization for biochemical assays.
Mouse brains from non-transgenic animals were resuspended in 8 volumes of 0.4% DEA (diethylamine)/50 mM NaCl containing protease inhibitors (Roche-11873580001 or 04693159001) per gram of tissue, e.g. for 0.158 g brain, add 1.264 ml of 0.4% DEA. All samples were homogenized in the FastPrep-24 system (MP Biomedicals) using lysing matrix D (MPBio #6913-100) at 6 m/s for 20 seconds. Homogenates were centrifuged at 221.300×g for 50 min. The resulting high speed supernatants were then transferred to fresh eppendorf tubes. Nine parts of supernatant were neutralized with 1 part 0.5 M Tris-HCl pH 6.8 and used to quantify Aβtotal and Aβ42.
To quantify the amount of Aβtotal and Aβ42 in the soluble fraction of the brain homogenates, Enzyme-Linked-Immunosorbent-Assays were used. Briefly, the standards (a dilution of synthetic Aβ1-40 and Aβ1-42, Bachem) were prepared in 1.5 ml Eppendorf tube in Ultraculture, with final concentrations ranging from 10000 to 0.3 pg/ml. The samples and standards were co-incubated with HRPO-labelled N-terminal antibody for Aβ42 detection and with the biotinylated mid-domain antibody 4G8 for Aβtotal detection. 50 μl of conjugate/sample or conjugate/standards mixtures were then added to the antibody-coated plate (the capture antibodies selectively recognize the C-terminal end of Aβ42, antibody JRF/cAβ42/26, for Aβ42 detection and the N-terminus of Aβ, antibody JRF/rAβ/2, for Aβtotal detection). The plate was allowed to incubate overnight at 4° C. in order to allow formation of the antibody-amyloid complex. Following this incubation and subsequent wash steps the ELISA for Aβ42 quantification was finished by addition of Quanta Blu fluorogenic peroxidase substrate according to the manufacturer's instructions (Pierce Corp., Rockford, Ill.). A reading was performed after 10 to 15 min (excitation 320 nm/emission 420 nm).
In this model a Aβ42 lowering compared to untreated animals would be advantageous, in particular a Aβ42 lowering with at least 10%, more in particular a Aβ42 lowering with at least 20%.
The results are shown in Table 4 (dose 30 mg/kg oral dosing) (value for untreated animals as control (Ctrl) was set at 100): […]

Row | SMILES | response vs control in vivo at 30 mg/kg [%]
1 | Cc1cn(-c2ccc3n(c2=O)CCN(C(C)c2cccc(Cl)c2Cl)C3=O)cn1 (single isomer, unassigned) [10a] | 87
2 | CCC1Cn2c(ccc(-n3cnc(C)c3)c2=O)C(=O)N1Cc1cc(C(F)(F)F)cc(C(F)(F)F)c1.Cl (stereo not drawn) [compound 1] | 61
3 | Cc1cn(-c2ccc3n(c2=O)C[C@@H](C)N(Cc2ccc(Cl)c(Cl)c2)C3=O)cn1 [compound 2] | 82
4 | Cc1cn(-c2ccc3n(c2=O)CC(C)N(Cc2cc(C(F)(F)F)cc(C(F)(F)F)c2)C3=O)cn1 (stereo not drawn) [compound 3] | 55
5 | Cc1cn(-c2ccc3n(c2=O)CCN(Cc2cccc(-c4ccccc4)c2)C3=O)cn1 [compound 5] | 78
6 | Cc1cn(-c2ccc3n(c2=O)CC(C)N(Cc2cc(OCC4CC4)cc(C(F)(F)F)c2)C3=O)cn1.Cl (stereo not drawn) [compound 6] | 85
7 | CCc1cn(-c2ccc3n(c2=O)CC(C)N(Cc2cc(C(F)(F)F)cc(C(F)(F)F)c2)C3=O)cn1.Cl (stereo not drawn) [compound 7] | 73
8 | Cc1cn(-c2ccc3n(c2=O)CCN(Cc2ccccc2C)C3=O)cn1 [compound 22] | 106
9 | Cc1cn(-c2ccc3n(c2=O)C[C@@H](C)N(Cc2cccc(C(C)(C)C)c2)C3=O)cn1 [compound 23] | 122
10 | Cc1cn(-c2ccc3n(c2=O)C[C@@H](C)N(Cc2ccc(C(F)(F)F)c(C(F)(F)F)c2)C3=O)cn1 [compound 46] | 60
11 | Cc1cn(-c2ccc3n(c2=O)C[C@@H](C)N(CCc2cc(C(F)(F)F)cc(C(F)(F)F)c2)C3=O)cn1 [compound 50] | 88
12 | Cc1cc(CN2C(=O)c3ccc(-n4cnc(C)c4)c(=O)n3C[C@H]2C)cc(C(F)(F)F)c1 [compound 59] | 82
13 | Cc1cn(-c2ccc3n(c2=O)C[C@@H](C)N(Cc2ccc(Cl)c(C(F)(F)F)c2)C3=O)cn1 [compound 62] | 68
14 | Cc1cn(-c2ccc3n(c2=O)C[C@@H](C)N(Cc2cc(Cl)cc(C(F)(F)F)c2)C3=O)cn1 [compound 63] | 82
15 | Cc1cn(-c2ccc3n(c2=O)CCN(Cc2ccc(Cl)c(C(F)(F)F)c2)C3=O)cn1 [compound 65] | 104
16 | Cc1cn(-c2ccc3n(c2=O)C[C@@H](C)N(Cc2cc(N4CCC(C)CC4)ccc2Cl)C3=O)cn1 [compound 80] | 119
17 | Cc1cn(-c2ccc3n(c2=O)C[C@@H](C)N(Cc2cc(N4CCCC4)ccc2Cl)C3=O)cn1 [compound 82] | 78
18 | Cc1cn(-c2ccc3n(c2=O)CCN(Cc2ccc(C)c(N4CCCCC4)c2)C3=O)cn1 [compound 99] | 111
